Measurements as given in US20200055848A1, “FURANONE DERIVATES AND METHODS OF USE THEREOF” (CARNA BIOSCIENCES, INC., priority 2016, published 2020).
pIC50: −log10 of the molar value.

Assays:
[1] = In vitro metabolic stability, human liver microsomes; type: in vitro ADME
Method: (§1) NADPH regeneration system (13 mM NADP, 33 mM Glucose-6-phospate, 33 mM MgCl2, and 4 U/mL of Glucose-6-phosphate dehydrogenase) and liver microsomes (1 mg/mL of HLM (BD Gentest, lot 18888) or MLM (BD Gentest, lot 31197)) in 0.1 M phosphate buffer (pH 7.4) were pre-incubated separately at 37° C. for 20 min before mixing with 1:4 ratio. 50 μL of the mixed solution was added to 50 μL of the test compound (2 μM) to initiate the reaction at 37° C. (final conc. 1 μM test compound, 0.4 mg/mL liver microsomes, and 1.3 mM NADPH). After 30 min, the reactions were stopped by adding 300 μL of cold acetonitrile. For 0 min samples, ice-cold acetonitrile (with system suitability standard) was treated before mixing the test compound and microsomes. The sample were vortexed well and then centrifuged at 3500 rpm at 15° C. for 20 min. 110 μL of supernatant was mixed with 110 μL of water and quantitated by LC-MS/MS workstation (Shimazu Corp.).

[2] = In vitro metabolic stability, mouse liver microsomes; type: in vitro ADME
Method: as §1

Cdc7 = Cdc7 (Homo sapiens, UniProt O00311); assay: Rapid dilution assay (dissociation rate from Cdc7); type: biochemical
Description: FIG. 2 is a graph of the results obtained from the rapid dilution assay for Cdc7 inhibitors. Recovery of enzymatic activity was monitored by formation of the phosphorylated product. DMSO control (closed circle), compound 1 (open triangle), compound 13 (open square).
To better understand the observed time dependent inhibition of these compounds, compound 13 was subjected to the rapid dilution assay to study dissociation rate, and compared with compound 1. The inhibitor-enzyme mixture was rapidly diluted into the assay buffer containing the substrate and a high concentration of ATP, and then the phosphorylated product formation was monitored over 500 min of time course.

CLK1 = CLK1 (Homo sapiens, UniProt P49759); assay: Kinase selectivity IC50, CLK1; type: biochemical
Method: (§2) To investigate the representative kinase selectivity of these compounds at physiological ATP levels, compound 13 was screened over a panel of 121 kinases in the presence of 1 mM ATP with preincubation method. […] IC50 values of hit kinases were determined to confirm the selectivity of compound 13.

CLK2 = CLK2 (Homo sapiens, UniProt P49760); assay: Kinase selectivity IC50, CLK2; type: biochemical
Method: as §2

GSK3β = GSK3β (Homo sapiens, UniProt P49841); assay: Kinase selectivity IC50, GSK3β; type: biochemical
Method: as §2

DYRK1B = DYRK1B (Homo sapiens, UniProt Q9Y463); assay: Kinase selectivity IC50, DYRK1B; type: biochemical
Method: as §2

Erk2 = Erk2 (Homo sapiens, UniProt P28482); assay: Kinase selectivity IC50, Erk2; type: biochemical
Method: as §2

PIM1 = PIM1 (Homo sapiens, UniProt P11309); assay: Kinase selectivity IC50, PIM1; type: biochemical
Method: as §2

Erk1 = Erk1 (Homo sapiens, UniProt P27361); assay: Kinase selectivity IC50, Erk1; type: biochemical
Method: as §2

[3] = system: phosphorylation at Ser53 of MCM2; assay: Western blotting of MCM2 phosphorylation in Colo-205 cells; type: cell-based, human; conditions: 48 h, even at 0.1 μM
Method: (§3) FIGS. 3A and 3B illustrate the effects of Cdc7 inhibition by compound 13 in Colo-205 cells. a) Western blot analysis of extracts prepared from Colo-205 cells at 48 h after treatment with DMSO control (0 μM) or compound 13 at indicated concentrations. b) […] analysis of Colo-205 cells treated for 48 h with DMSO control (0 μM) and the indicated concentration of compound 13. DNA content was measured by FACS after propidium iodide staining.
(§4) Human colon adenocarcinoma cell line Colo-205 was obtained from American Type Culture Collection (ATCC, Manassas Va.). Cells were grown in RPMI1640 supplemented with 10% FBS and 1% penicillin/streptomycin at 37° C., 5% CO2 and 95% humidity. Antibodies against Phospho-Histone H2A.X (Ser139) (no. 2577), Cleaved PARP (Asp214) (no. 9541) and MCM2 (no. 3619) were obtained from Cell signaling Technology. […]
(§5) Cells were seeded in T75 flasks (cell density, 2.25×10^6 cells/13.5 mL) and then incubated at 37° C. overnight. […] After washing with cold D-PBS, cells were scraped and lysed using a lysis buffer [RIPA Buffer (×1) containing 1% Phosphatase inhibitor Cocktail 3, 1% Phosphatase inhibitor Cocktail, and 1 mM phenylmethylsulfonyl fluoride], and the obtained samples were analyzed by western blotting. […] Each band was detected by chemiluminescence using a CCD camera (ImageQuant LAS 500, GE healthcare Ltd.).

phospho-H2AX (γ-H2AX) = assay: Western blotting of phospho-H2AX in Colo-205 cells; type: cell-based, human; conditions: 48 h
Method: as §3, §4, §5

cleaved PARP = assay: Western blotting of cleaved PARP in Colo-205 cells; type: cell-based, human; conditions: 48 h
Method: as §3, §4, §5

Colo-205 cells = assay: Anti-proliferation activity in Colo-205 cells; type: cell-based; conditions: Homo sapiens, read-out: reduction of cell proliferation IC50
[4] = system: phosphorylation of MCM2 in Colo-205 cells; assay: Recovery of MCM2 phosphorylation after inhibitor washout; type: cell-based, human; conditions: Colo-205 cells treated 48 hours, then compound-free media
Method: Colo-205 cells were treated with or without compounds for 48 h. After inhibitor washout with compound-free media, the cells were lysed at the indicated time and subjected to western blot analysis.
Next, we investigated the recovery of substrate phosphorylation in cells after inhibitor washout to see whether the slow-off rate of inhibitor affects the recovery of phosphorylation. Colo-205 cells were treated for 48 hours with 13, and then, the inhibitor was washed out with compound-free media. The cells were lysed at the indicated time, and the phosphorylation status of MCM2 was analyzed by western blotting.

[5] = Half-life after intravenous administration in mice; conditions: mouse, in vivo
[6] = 1 mM ATP with preincubation, mean of duplicated assays

Cdc7, sequence (O00311 whole entry): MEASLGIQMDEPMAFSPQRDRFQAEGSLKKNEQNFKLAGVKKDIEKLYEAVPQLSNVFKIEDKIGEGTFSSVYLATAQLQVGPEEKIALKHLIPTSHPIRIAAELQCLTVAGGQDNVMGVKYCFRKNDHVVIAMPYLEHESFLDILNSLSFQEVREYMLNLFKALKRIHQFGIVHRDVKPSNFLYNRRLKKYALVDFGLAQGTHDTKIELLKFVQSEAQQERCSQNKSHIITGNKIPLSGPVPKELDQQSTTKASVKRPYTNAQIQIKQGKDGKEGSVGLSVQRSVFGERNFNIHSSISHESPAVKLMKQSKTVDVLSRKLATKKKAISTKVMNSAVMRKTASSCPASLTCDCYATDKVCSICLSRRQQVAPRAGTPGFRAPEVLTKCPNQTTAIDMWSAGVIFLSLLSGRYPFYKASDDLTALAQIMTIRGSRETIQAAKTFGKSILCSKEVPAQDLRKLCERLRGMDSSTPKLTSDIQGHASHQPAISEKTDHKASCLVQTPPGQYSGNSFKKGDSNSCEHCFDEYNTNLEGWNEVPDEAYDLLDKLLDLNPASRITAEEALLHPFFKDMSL
Cdc7, sequence (Q9UBU7 whole entry partner): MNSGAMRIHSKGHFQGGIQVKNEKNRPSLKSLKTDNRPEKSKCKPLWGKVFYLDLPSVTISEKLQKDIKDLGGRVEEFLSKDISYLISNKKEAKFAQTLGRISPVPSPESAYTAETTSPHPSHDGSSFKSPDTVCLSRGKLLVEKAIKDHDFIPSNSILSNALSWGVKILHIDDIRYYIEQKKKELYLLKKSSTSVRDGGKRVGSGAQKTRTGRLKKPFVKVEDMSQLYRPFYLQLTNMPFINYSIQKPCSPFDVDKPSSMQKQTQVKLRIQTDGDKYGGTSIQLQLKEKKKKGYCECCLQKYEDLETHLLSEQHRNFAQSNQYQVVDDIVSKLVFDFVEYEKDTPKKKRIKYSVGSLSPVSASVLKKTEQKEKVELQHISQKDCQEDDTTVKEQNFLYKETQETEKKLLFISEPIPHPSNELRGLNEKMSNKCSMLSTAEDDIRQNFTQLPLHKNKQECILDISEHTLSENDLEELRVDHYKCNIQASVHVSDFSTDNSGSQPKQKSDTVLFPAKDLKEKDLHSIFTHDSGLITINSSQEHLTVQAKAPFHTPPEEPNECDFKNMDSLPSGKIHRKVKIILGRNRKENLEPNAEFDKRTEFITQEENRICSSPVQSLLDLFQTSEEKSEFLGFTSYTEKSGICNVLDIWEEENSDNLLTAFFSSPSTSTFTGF
Erk2, sequence (P28482 whole entry): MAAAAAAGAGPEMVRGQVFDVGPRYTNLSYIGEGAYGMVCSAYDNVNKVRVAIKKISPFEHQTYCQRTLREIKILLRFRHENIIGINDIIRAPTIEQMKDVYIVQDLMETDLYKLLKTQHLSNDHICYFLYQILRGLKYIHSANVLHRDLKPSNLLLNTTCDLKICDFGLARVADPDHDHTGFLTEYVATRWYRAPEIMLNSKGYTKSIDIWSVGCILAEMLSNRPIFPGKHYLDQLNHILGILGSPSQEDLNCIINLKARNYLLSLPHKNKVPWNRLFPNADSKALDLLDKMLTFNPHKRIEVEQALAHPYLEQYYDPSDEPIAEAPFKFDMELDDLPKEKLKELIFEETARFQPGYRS
CLK2, sequence (P49760 whole entry): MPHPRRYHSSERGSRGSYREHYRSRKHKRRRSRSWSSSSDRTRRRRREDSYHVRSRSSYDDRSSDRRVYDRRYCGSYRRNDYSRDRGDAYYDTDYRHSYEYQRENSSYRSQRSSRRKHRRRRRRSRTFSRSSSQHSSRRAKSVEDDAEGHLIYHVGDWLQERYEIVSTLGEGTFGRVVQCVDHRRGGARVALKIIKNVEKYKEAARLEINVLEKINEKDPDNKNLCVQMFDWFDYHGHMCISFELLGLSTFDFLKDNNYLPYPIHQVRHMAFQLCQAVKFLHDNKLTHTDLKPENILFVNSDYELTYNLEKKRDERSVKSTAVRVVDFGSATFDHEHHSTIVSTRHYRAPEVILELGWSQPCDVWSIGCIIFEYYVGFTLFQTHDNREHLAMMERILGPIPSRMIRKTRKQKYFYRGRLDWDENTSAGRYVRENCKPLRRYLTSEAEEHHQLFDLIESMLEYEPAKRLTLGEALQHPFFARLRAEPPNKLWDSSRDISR
PIM1, sequence (P11309 whole entry): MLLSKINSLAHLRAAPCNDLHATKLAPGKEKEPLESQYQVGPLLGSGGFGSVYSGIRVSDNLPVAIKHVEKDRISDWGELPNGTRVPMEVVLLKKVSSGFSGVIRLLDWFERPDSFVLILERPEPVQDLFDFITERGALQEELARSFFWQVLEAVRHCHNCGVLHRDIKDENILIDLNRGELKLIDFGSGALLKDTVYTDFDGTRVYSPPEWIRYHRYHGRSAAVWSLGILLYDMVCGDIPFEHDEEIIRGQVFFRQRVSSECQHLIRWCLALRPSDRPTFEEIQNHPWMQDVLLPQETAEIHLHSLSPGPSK
GSK3β, sequence (P49841 whole entry): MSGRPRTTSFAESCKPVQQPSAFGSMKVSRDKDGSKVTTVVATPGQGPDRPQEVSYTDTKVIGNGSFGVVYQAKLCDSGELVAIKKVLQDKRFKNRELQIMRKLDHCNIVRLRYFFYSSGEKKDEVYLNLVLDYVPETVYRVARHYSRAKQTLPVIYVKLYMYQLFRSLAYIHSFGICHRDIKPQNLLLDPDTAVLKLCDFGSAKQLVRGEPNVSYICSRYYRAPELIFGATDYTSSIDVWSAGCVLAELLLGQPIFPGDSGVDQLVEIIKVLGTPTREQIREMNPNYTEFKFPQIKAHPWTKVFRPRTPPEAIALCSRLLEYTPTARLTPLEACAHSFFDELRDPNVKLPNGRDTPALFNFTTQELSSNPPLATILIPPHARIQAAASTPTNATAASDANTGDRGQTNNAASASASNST
DYRK1B, sequence (Q9Y463 whole entry): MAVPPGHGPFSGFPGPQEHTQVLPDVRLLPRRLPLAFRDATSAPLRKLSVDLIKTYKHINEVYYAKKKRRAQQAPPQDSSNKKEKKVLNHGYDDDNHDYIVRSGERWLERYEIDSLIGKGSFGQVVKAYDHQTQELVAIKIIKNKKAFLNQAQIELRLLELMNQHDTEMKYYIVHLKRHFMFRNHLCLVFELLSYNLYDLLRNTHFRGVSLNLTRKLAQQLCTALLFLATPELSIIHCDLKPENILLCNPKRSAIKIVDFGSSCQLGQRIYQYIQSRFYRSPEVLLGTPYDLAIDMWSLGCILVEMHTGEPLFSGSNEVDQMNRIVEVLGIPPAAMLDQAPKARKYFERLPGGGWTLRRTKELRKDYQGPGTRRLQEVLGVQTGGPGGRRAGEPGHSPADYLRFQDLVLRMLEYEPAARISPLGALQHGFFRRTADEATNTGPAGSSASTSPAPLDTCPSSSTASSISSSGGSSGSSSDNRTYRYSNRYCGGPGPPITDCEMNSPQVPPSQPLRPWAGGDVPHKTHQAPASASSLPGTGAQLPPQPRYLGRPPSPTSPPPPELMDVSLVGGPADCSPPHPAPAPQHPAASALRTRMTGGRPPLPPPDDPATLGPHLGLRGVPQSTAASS
Erk1, sequence (P27361 whole entry): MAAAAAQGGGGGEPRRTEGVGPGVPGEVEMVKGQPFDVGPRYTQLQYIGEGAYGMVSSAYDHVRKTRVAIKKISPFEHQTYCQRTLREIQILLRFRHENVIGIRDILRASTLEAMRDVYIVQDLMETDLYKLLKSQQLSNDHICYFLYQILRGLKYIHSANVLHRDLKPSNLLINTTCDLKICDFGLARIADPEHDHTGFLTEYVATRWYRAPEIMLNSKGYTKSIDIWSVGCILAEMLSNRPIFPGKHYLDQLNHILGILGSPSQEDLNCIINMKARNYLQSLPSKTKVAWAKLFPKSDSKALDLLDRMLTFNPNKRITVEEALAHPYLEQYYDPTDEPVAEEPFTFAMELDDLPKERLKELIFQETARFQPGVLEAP
CLK1, sequence (P49759 whole entry): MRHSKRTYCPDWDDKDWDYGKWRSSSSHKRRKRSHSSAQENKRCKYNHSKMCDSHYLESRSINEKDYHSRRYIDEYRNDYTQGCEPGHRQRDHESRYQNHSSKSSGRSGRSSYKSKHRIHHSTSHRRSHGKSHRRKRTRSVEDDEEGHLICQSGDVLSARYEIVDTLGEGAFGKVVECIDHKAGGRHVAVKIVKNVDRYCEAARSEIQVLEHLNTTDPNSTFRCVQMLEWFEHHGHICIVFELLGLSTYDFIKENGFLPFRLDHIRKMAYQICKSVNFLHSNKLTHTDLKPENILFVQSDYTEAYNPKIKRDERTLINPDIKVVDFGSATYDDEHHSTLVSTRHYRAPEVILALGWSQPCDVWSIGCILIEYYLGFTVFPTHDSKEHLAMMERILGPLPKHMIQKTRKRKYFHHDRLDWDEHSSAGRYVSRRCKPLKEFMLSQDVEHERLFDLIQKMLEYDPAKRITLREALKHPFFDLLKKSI

In the case of `CCOC(=O)C1=C(Nc2ccccc2Cl)OC(=Cc2c[nH]c3ncccc23)C1=O` [Compound 13, Ethyl 5-((1H-pyrrolo[2,3-b]pyridin-3-yl)methylene)-2-((2-chlorophenyl)amino)-4-oxo-4,5-dihydrofuran-3-carboxylate], the “HLM % (remaining % of parent compound)” value ([1]; 30 min treatment of human liver microsomes) was 67%, the “metabolic stability in human liver microsome (in words)” value ([1]; human) was “improved metabolic stabilities” and the “MLM % (remaining % of parent compound)” value ([2]; 30 min treatment of mouse liver microsomes) was 58%. The “metabolic stability in mice (in words)” value ([2]; mouse) was “improved metabolic stabilities”, the “phosphorylated product formation after rapid dilution” value (Cdc7; monitored over 500 min) was “much reduced rate” and the koff (Cdc7; rapid dilution, high concentration of ATP, read-out: off-rate from Cdc7 (koff) (converted)) was 5.83e-05 s⁻¹. For the same molecule, the residence time (Cdc7; rapid dilution, high concentration of ATP, read-out: t1/2 of dissociation from Cdc7) was 197 min, the IC50 (CLK1; [6]) was 5 nM and the “Fold selectivity, CLK1” value (CLK1; IC50 versus Cdc7) was 8.3 fold. The IC50 (CLK2; [6]) was 5.3 nM, the “Fold selectivity, CLK2” value (CLK2; IC50 versus Cdc7) was 8.8 fold and the IC50 (GSK3β; [6]) was 51 nM. For the same molecule, the “Fold selectivity, GSK3β” value (GSK3β; IC50 versus Cdc7) was 85 fold, the IC50 (DYRK1B; [6]) was 53 nM and the “Fold selectivity, DYRK1B” value (DYRK1B; IC50 versus Cdc7) was 88 fold. The IC50 (Erk2; [6]) was 61 nM, the “Fold selectivity, Erk2” value (Erk2; IC50 versus Cdc7) was 102 fold and the IC50 (PIM1; [6]) was 77 nM. For the same molecule, the “Fold selectivity, PIM1” value (PIM1; IC50 versus Cdc7) was 129 fold, the IC50 (Erk1; [6]) was 278 nM and the “Fold selectivity, Erk1” value (Erk1; IC50 versus Cdc7) was 463 fold. For the same molecule, the “inhibition of phosphorylation at Ser53 of MCM2” value [3] was “potently inhibited”, the “DNA double strand breaks (phospho-H2AX, γ-H2AX)” value (phospho-H2AX (γ-H2AX)) was “DNA strand breakages were observed” and the “cleaved PARP (apoptosis marker)” value (cleaved PARP) was “Dose-dependent increases”. For the same molecule, the pIC50 (Colo-205 cells) was 6.77, the “phosphorylation of MCM2 after inhibitor washout” value [4] was “inhibited even 24 hours after washout” and the half-life [5] was 22.8 min.
